No end group written: not given here.
T1: RXFP3 (Homo sapiens, UniProt Q9NSD7)
T1 construct: expressed in transfected cells
T1 sequence (Q9NSD7 1-469): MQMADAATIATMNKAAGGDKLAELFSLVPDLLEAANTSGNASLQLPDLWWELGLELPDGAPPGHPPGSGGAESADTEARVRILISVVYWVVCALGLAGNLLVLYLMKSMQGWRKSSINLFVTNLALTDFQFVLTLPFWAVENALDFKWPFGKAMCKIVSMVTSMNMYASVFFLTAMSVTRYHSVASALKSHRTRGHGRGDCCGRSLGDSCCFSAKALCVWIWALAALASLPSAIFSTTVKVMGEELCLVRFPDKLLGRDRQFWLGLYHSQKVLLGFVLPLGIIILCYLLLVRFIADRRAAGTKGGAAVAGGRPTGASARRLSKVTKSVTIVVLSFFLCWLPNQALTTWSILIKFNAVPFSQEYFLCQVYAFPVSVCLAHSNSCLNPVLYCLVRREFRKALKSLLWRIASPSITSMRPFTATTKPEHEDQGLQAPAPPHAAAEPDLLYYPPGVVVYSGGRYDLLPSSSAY

B1: INSL3: relaxin family peptide (peptide, UniProt P51460 21-55; P51460 106-131, looked up)
Insulin-like 3 B chain: LGPAPTPEMREKLCGHHFVRALVRVCGGPRWSTEA
Insulin-like 3 A chain: AAATNPARYCCLSGCTQQDLLTLCPY
modifications: not fully specified (bridges); ends and bridges not checked
notes: relaxin family peptide

What was measured:
RXFP3 [1] = target: T1, RXFP3; assay: Competition binding, Eu-labelled I5/R3, CHO-K1 cells expressing RXFP3; conditions: CHO-K1 cells stably expressing RXFP3; Eu-I5/R3 0.5 nM; one site competition fit; mean ± SEM, n in parentheses in cell (3; H3 amide 4), triplicate determinations; ** p<0.01 vs H3 acid (H3 amide, H3 A-acid); read-out: RXFP3 Eu-H3/I5 pKi (converted)
Experimental: (§1) The receptor binding affinity of the peptides was measured using CHO-K1 cells stably expressing RXFP3 and RXFP4. The competition binding assays were carried out as previously described, [27]. Briefly, a single concentration of Eu-labelled I5/R3 (0.5 nM) or Eu-labelled mouse INSL5 (2.5 nM) were used in presence of increasing concentration of peptides. The data were analyzed using GraphPad PRISM 5 (GraphPad Inc., San Diego, USA). The europium binding curves were fitted to a one site competition curve and the pKi values were expressed as the mean ± SEM of at least three independent experiments with triplicate determinations within each assay.
(§2) Figure 2 Receptor binding affinity (pKi) and cAMP activity (pEC-50) curves of H3 relaxin and its variants at RXFP3. A) Competition binding curves of H3 relaxin variants using a single concentration of Eu-I5/R3 (0.5 nM) in the presence of increasing concentrations of the H3 relaxin peptides. B) RXFP3 activation curves of H3 relaxin variants measured in a cAMP activity assay in the presence of 5 µM forskolin. The data were expressed as mean ± SEM. from at least three independent experiments.

RXFP3 [2] = target: T1, RXFP3; assay: cAMP activity (inhibition of forskolin-induced cAMP), CHO-K1 cells expressing RXFP3; type: cell-based; conditions: CHO-K1 RXFP3, pCRE-β-galactosidase reporter; forskolin 1 µM (method) / 5 µM (Fig. 2 legend); peptide 0.01 nM – 1 µM; mean ± SEM, n = 3, triplicate determinations; ** p<0.01 vs H3 acid (H3 amide, H3 A-acid); read-out: RXFP3 cAMP pEC50 (converted)
Experimental: (§3) The ability of the peptides to activate the receptors RXFP3/RXFP4 was assessed by measuring their influence on cAMP signalling in CHO-K1 cells stably expressing RXFP3 or RXFP4 transfected with a pCRE-β-galactosidase reporter gene construct as previously described. A single concentration of forskolin was used to stimulate cAMP signalling in cells expressing RXFP3 (1 µM) and RXFP4 (5 µM) and peptide induced inhibition of cAMP signalling was measured by adding increasing concentrations of the peptides (0.01 nM – 1 µM). The ability of the peptides to inhibit forskolin-induced cAMP response (pEC50) was measured and expressed as mean ± SEM from three independent experiments with triplicate determinations within each assay. The inhibition curves were fitted to a single-site sigmoidal dose-response curve with variable slope using Graphpad PRISM 5.
as §2

RXFP4 [3] = target: T2, RXFP4 (Homo sapiens, UniProt Q8TDU9); assay: Competition binding, Eu-labelled mouse INSL5, CHO-K1 cells expressing RXFP4; conditions: CHO-K1 cells stably expressing RXFP4; Eu-labelled mouse INSL5 2.5 nM; one site competition fit; mean ± SEM, n = 3, triplicate determinations; vs H3 acid: * H3 amide, ** p<0.01 H3 A-acid; read-out: RXFP4 Eu-INSL5 pKi (converted)
T2 construct: expressed in transfected cells
Experimental: as §1
(§4) Figure 3 Receptor binding affinity (pKi) and cAMP activity (pEC-50) curves of H3 relaxin and its variants at RXFP4. A) Competition binding curves of H3 relaxin variants at RXFP4 using a single concentration of Eu-INSL5 (2.5 nM) in the presence of increasing concentrations of the H3 relaxin peptides. B) RXFP4 activation curves of H3 relaxin variants measured in a cAMP activity assays in the presence of 1 µM forskolin. The data were expressed as mean ± SEM from at least three independent experiments.

RXFP4 [4] = target: T2, RXFP4; assay: cAMP activity (inhibition of forskolin-induced cAMP), CHO-K1 cells expressing RXFP4; type: cell-based; conditions: CHO-K1 RXFP4, pCRE-β-galactosidase reporter; forskolin 5 µM (method) / 1 µM (Fig. 3 legend); peptide 0.01 nM – 1 µM; mean ± SEM, n = 3, triplicate determinations; vs H3 acid: * H3 amide, ** p<0.01 H3 A-acid; read-out: RXFP4 cAMP pEC50 (converted)
Experimental: as §3, §4

[5] = cited from earlier work; for activity by C-terminal form: C-terminal amide vs acid
Description: The bioactivity of many polypeptide hormones often requires a form of post-translational modification of their precursors. An example of a widespread modification is C-terminal amidation which often leads to an increase in bioactivity of peptides [32]–[35]. In some cases, amidation of the C-terminus has been reported to have detrimental effect on the activity of peptides, [36]. […] In the case of relaxin family peptides, H2 relaxin and INSL3, both p ...

T2 sequence (Q8TDU9 whole entry, species assumed): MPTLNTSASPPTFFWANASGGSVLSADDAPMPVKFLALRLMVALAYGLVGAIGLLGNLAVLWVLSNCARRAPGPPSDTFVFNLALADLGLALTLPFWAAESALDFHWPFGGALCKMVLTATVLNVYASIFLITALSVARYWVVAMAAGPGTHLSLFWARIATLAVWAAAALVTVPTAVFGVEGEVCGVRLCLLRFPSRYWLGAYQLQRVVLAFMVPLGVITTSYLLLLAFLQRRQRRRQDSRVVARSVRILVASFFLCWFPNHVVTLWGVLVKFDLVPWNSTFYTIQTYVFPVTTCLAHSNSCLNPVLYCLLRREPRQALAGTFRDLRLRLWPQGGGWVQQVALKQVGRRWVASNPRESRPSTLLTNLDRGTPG

Molecule	Ki (RXFP3 [1]) [nM]	EC50 (RXFP3 [2]) [nM]	Ki (RXFP4 [3]) [nM]	EC50 (RXFP4 [4]) [nM]	activity by C-terminal form [5]	activity of acid vs amide form [5]
CC[C@H](C)[C@@H]1NC(=O)[C@H](Cc2ccccc2)NC(=O)[C@H](CCC(=O)O)NC(=O)[C@H](CCCNC(=N)N)NC(=O)CNC(=O)[C@@H](NC(=O)[C@H](CC(C)C)NC(=O)[C@H](CCCNC(=N)N)NC(=O)[C@@H](NC(=O)CNC(=O)[C@H](Cc2ccc(O)cc2)NC(=O)[C@@H]2CCCN2C(=O)[C@H](C)NC(=O)[C@H](C)NC(=O)[C@@H](N)CCCNC(=N)N)C(C)C)CSSC[C@@H]2NC(=O)[C@@H](NC(=O)[C@H](CO)NC(=O)[C@H](CO)NC(=O)[C@H](CO)NC(=O)[C@H](CC(C)C)NC(=O)CNC(=O)[C@H](C)NC(=O)[C@H](CC(C)C)NC(=O)[C@@H](NC(=O)[C@@H](N)CC(=O)O)C(C)C)CSSC[C@H](NC(=O)CNC(=O)[C@H](Cc3c[nH]c4ccccc34)NC(=O)[C@H](CCCCN)NC2=O)C(=O)N[C@@H](CO)C(=O)N[C@@H](CCCCN)C(=O)N[C@@H](CO)C(=O)N[C@@H](CCC(=O)O)C(=O)N[C@@H]([C@@H](C)CC)C(=O)N[C@@H](CO)C(=O)N[C@@H](CO)C(=O)N[C@@H](CC(C)C)C(=O)N[C@H](C(=O)O)CSSC[C@@H](C(=O)NCC(=O)NCC(=O)N[C@@H](CO)C(=O)N[C@@H](CCCNC(=N)N)C(=O)N[C@@H](Cc2c[nH]c3ccccc23)C(N)=O)NC(=O)[C@H]([C@@H](C)O)NC(=O)[C@H](Cc2ccccc2)NC(=O)[C@H]([C@@H](C)CC)NC(=O)[C@H](C(C)C)NC(=O)[C@H](C)NC(=O)[C@H](CCCNC(=N)N)NC1=O [H3 A-acid]	151	4.9	117	34.7		
CC[C@H](C)[C@@H]1NC(=O)[C@H](Cc2ccccc2)NC(=O)[C@H](CCC(=O)O)NC(=O)[C@H](CCCNC(=N)N)NC(=O)CNC(=O)[C@@H](NC(=O)[C@H](CC(C)C)NC(=O)[C@H](CCCNC(=N)N)NC(=O)[C@@H](NC(=O)CNC(=O)[C@H](Cc2ccc(O)cc2)NC(=O)[C@@H]2CCCN2C(=O)[C@H](C)NC(=O)[C@H](C)NC(=O)[C@@H](N)CCCNC(=N)N)C(C)C)CSSC[C@@H]2NC(=O)[C@@H](NC(=O)[C@H](CO)NC(=O)[C@H](CO)NC(=O)[C@H](CO)NC(=O)[C@H](CC(C)C)NC(=O)CNC(=O)[C@H](C)NC(=O)[C@H](CC(C)C)NC(=O)[C@@H](NC(=O)[C@@H](N)CC(=O)O)C(C)C)CSSC[C@H](NC(=O)CNC(=O)[C@H](Cc3c[nH]c4ccccc34)NC(=O)[C@H](CCCCN)NC2=O)C(=O)N[C@@H](CO)C(=O)N[C@@H](CCCCN)C(=O)N[C@@H](CO)C(=O)N[C@@H](CCC(=O)O)C(=O)N[C@@H]([C@@H](C)CC)C(=O)N[C@@H](CO)C(=O)N[C@@H](CO)C(=O)N[C@@H](CC(C)C)C(=O)N[C@H](C(N)=O)CSSC[C@@H](C(=O)NCC(=O)NCC(=O)N[C@@H](CO)C(=O)N[C@@H](CCCNC(=N)N)C(=O)N[C@@H](Cc2c[nH]c3ccccc23)C(=O)O)NC(=O)[C@H]([C@@H](C)O)NC(=O)[C@H](Cc2ccccc2)NC(=O)[C@H]([C@@H](C)CC)NC(=O)[C@H](C(C)C)NC(=O)[C@H](C)NC(=O)[C@H](CCCNC(=N)N)NC1=O [H3 B-acid]	24	0.955	19.1	1.32		
CC[C@H](C)[C@@H]1NC(=O)[C@H](Cc2ccccc2)NC(=O)[C@H](CCC(=O)O)NC(=O)[C@H](CCCNC(=N)N)NC(=O)CNC(=O)[C@@H](NC(=O)[C@H](CC(C)C)NC(=O)[C@H](CCCNC(=N)N)NC(=O)[C@@H](NC(=O)CNC(=O)[C@H](Cc2ccc(O)cc2)NC(=O)[C@@H]2CCCN2C(=O)[C@H](C)NC(=O)[C@H](C)NC(=O)[C@@H](N)CCCNC(=N)N)C(C)C)CSSC[C@@H]2NC(=O)[C@@H](NC(=O)[C@H](CO)NC(=O)[C@H](CO)NC(=O)[C@H](CO)NC(=O)[C@H](CC(C)C)NC(=O)CNC(=O)[C@H](C)NC(=O)[C@H](CC(C)C)NC(=O)[C@@H](NC(=O)[C@@H](N)CC(=O)O)C(C)C)CSSC[C@H](NC(=O)CNC(=O)[C@H](Cc3c[nH]c4ccccc34)NC(=O)[C@H](CCCCN)NC2=O)C(=O)N[C@@H](CO)C(=O)N[C@@H](CCCCN)C(=O)N[C@@H](CO)C(=O)N[C@@H](CCC(=O)O)C(=O)N[C@@H]([C@@H](C)CC)C(=O)N[C@@H](CO)C(=O)N[C@@H](CO)C(=O)N[C@@H](CC(C)C)C(=O)N[C@H](C(=O)O)CSSC[C@@H](C(=O)NCC(=O)NCC(=O)N[C@@H](CO)C(=O)N[C@@H](CCCNC(=N)N)C(=O)N[C@@H](Cc2c[nH]c3ccccc23)C(=O)O)NC(=O)[C@H]([C@@H](C)O)NC(=O)[C@H](Cc2ccccc2)NC(=O)[C@H]([C@@H](C)CC)NC(=O)[C@H](C(C)C)NC(=O)[C@H](C)NC(=O)[C@H](CCCNC(=N)N)NC1=O [H3 acid]	18.6		8.71	1.15		
Oxytocin: polypeptide hormone					only active as a C-terminal amide form	
angiotensin II: polypeptide hormone					active as a C-terminal acid form	
B1						equally active either in acid or amide form

— publication PMC3859608, “C-Terminus of the B-Chain of Relaxin-3 Is Important for Receptor Activity” (PLoS ONE, 2013)
